Measured values published in US20250312468A1, “ANTI-PROTAC ANTIBODIES AND COMPLEXES” (Merck Patent GmbH, priority 2021, published 2025).

What was measured:
CD33xMIC8 = experiment: SPR affinity of VHH clone (antibody fusion) to PROTACs; conditions: CD33xMIC8 immobilized, 25° C., read-out: KD [M] for antibody binding to PROTAC
Outline: (§1)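 Kinetic rate constants and affinity were derived by fitting double-referenced sensorgrams to a 1:1 Langmuir model. PROTACs flowed at ten concentrations (1 μM down to 0.002 μM) over amine-coupled CD33 antibody–VHH fusions at 25° C, with DMSO solvent correction.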

CLL1xMIC7 = experiment: as above; conditions: CLL1xMIC7 immobilized, 25° C., read-out: KD [M] for antibody binding to PROTAC
CD33xMIC12 = experiment: as above; conditions: CD33xMIC12 immobilized, 25° C., read-out: KD [M] for antibody binding to PROTAC
Outline: as §1

CD33xMIC10 = experiment: as above; conditions: CD33xMIC10 immobilized, 25° C., read-out: KD [M] for antibody binding to PROTAC
Outline: as §1

CD33xMIC7 = experiment: as above; conditions: CD33xMIC7 immobilized, 25° C., read-out: KD [M] for antibody binding to PROTAC
Outline: as §1

CD33xMIC5 = experiment: as above; conditions: CD33xMIC5 immobilized, 25° C., read-out: KD [M] for antibody binding to PROTAC
Outline: as §1

NCIN87 = experiment: CellTiter-Glo cell viability assay (VHH-based PAX); conditions: NCIN87, PROTAC alone
Procedure: (§2) Several cell viability experiments were performed following the procedure described below: Cells were seeded in different media into white cell culture-treated flat and clear bottom multiwell plates followed by overnight incubation in a humid chamber at 37° C. and 5% CO2. Complexation was performed as described in chapter 7.4.
(§3) The solutions were added to the cells based on the antibody concentration using nanodrop dispension using a Tecan D300e Digital Dispenser and all wells were normalized to the same volume using 0.3% TW20 in PBS pH 7.4 and DMSO to a final solvent concentration of 0.05% DMSO and 0.003% TW20. Incubation was performed at 37° C. at 5% or 10% CO2 dependent on the medium. The assay was developed after 3 days if not otherwise stated using CellTiter-Glo Luminescent Cell Viability Assay as described in the manufacturer's protocol. In brief, the plates were equilibrated to room temperature for 30 minutes. 100 mL CellTiter-Glo Buffer were added to the CellTiter-Glo Substrate Flask and mixed well. 30 μL of the reagent was transferred to each well. After incubation for 3 minutes at room temperature while shaking at 550 rpm, the plate was incubated for another 10 minutes at room temperature. The luminescence was read on an Envision reader from Perkin Elmer. Solvent alone and Bortezomib (1.0E-05 M) served as high control (100% viability) and low control (0% viability), respectively. Raw data were converted into percent cell viability relative to the high and low control, which were set to 100% and 0%, respectively. […] The concentration corresponds to the concentration of PROTACs in the PAX.

SKBR3 = experiment: CellTiter-Glo cell viability assay (VHH-based PAX); conditions: SKBR3, PROTAC alone
Procedure: as §2, §3

RAMOS cells = experiment: CellTiter-Glo cell viability assay (VHH-based PAX); conditions: PROTAC alone
Procedure: as §2, §3

A549 = experiment: CellTiter-Glo cell viability assay (VHH-based PAX); conditions: A549, PROTAC alone
Procedure: as §2, §3

SW620 = experiment: CellTiter-Glo cell viability assay (VHH-based PAX); conditions: SW620, PROTAC alone
Procedure: as §2, §3

OVCAR3 = experiment: CellTiter-Glo cell viability assay (VHH-based PAX); conditions: OVCAR3, PROTAC alone
Procedure: as §2, §3

SMILES	Kd (CD33xMIC8)	Kd (CLL1xMIC7)	Kd (CD33xMIC12)	Kd (CD33xMIC10)	Kd (CD33xMIC7)	Kd (CD33xMIC5)	IC50 (NCIN87)	IC50 (SKBR3)	IC50 (RAMOS cells)	IC50 (A549)	IC50 (SW620)	IC50 (OVCAR3)
Cc1ncsc1-c1ccc([C@H](C)NC(=O)[C@@H]2C[C@@H](O)CN2C(=O)[C@@H](NC(=O)COCCCOCCNC(=O)C[C@@H]2N=C(c3ccc(Cl)cc3)c3c(sc(C)c3C)-n3c(C)nnc32)C(C)(C)C)cc1 [ARV771]	3.1e-08 M	8.8e-09 M	5.6e-09 M	1.4e-07 M	4.2e-09 M	2.7e-07 M						
Cc1ncsc1-c1ccc(CNC(=O)[C@@H]2C[C@@H](O)CN2C(=O)[C@@H](NC(=O)CCCCCCCCCCNC(=O)c2cc3c(cc2CS(C)(=O)=O)-c2cn(C)c(=O)c4[nH]cc(c24)CN3c2ncc(F)cc2F)C(C)(C)C)cc1 [GNE987]	6.5e-09 M	< 1e-10 M	4.2e-08 M	1.3e-08 M	< 1e-10 M	9.6e-10 M	0.53 nM	0.39 nM	0.058 nM	1.4 nM	0.84 nM	0.4 nM
